Data on 20 molecules can be found in US11453683B1, “KRas G12D inhibitors” (Mirati Therapeutics, Inc., priority 2019, dated 2022).

One assay addresses KRas G12D (Homo sapiens (Human), UniProt P01116, G12D). The assay can be described thus: KRas G12D Binding Assay (TR-FRET displacement). The conditions noted are these: TR-FRET displacement of Cy5 labelled tracer, GDP-loaded KRAS G12D, 60 minute incubation at 22° C. On the procedure:
After a 60 minute incubation at 22° C., the reaction was measured using a PerkinElmer EnVision multimode plate reader via TR-FRET dual wavelength detection, and the percent of control (POC) calculated using a ratiometric emission factor. […] The POC values were fit to a 4-parameter logistic curve and the IC50 value was determined as the concentration where the curve crosses 50 POC.

The subject of assay [1] is KRas G12D-mediated phosphorylation of ERK. The assay can be described thus: Inhibition of KRas G12D-mediated phosphorylation of ERK in AGS cells. Type of assay: cell-based. The conditions noted are these: Homo sapiens; AGS cells expressing G12D, 3 hours, phospho-ERK normalized to GAPDH. The gist of the method:
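In-cell Western: p-ERK Thr202/Tyr204 signal over GAPDH, as % of DMSO control, with IC50 from a 4-parameter curve. AGS cells seeded 40,000/well for 12-14 h, exposed to compound 3 h at 0.5% DMSO final, then formaldehyde-fixed and methanol-permeabilized.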

Chain of KRas G12D (P01116 other isoform, or with tags, fused parts or gaps G12D): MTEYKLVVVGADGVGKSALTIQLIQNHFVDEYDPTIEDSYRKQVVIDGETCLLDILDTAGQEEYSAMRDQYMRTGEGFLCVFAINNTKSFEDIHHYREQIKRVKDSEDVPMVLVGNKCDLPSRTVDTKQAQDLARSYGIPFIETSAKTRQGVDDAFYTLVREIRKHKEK

A word on the IC50: it is the concentration needed to halve the response being measured. High values mean a need for much substance, low ones inhibition by little substance. On KRas G12D, `COc1ccc(OC(F)(F)F)c(-c2ncc3c(N4CC5CCC(C4)N5)nc(OC[C@@]45CCCN4C[C@H](F)C5)nc3c2F)c1` (racemic) [Example 361, 4-((1R,5S)-3,8-diazabicyclo[3.2.1]octan-3-yl)-8-fluoro-2-((2-fluorotetrahydro-1H-pyrrolizin-7a(5H)-yl)methoxy)-7-(5-methoxy-2-(trifluoromethoxy)phenyl)pyrido[4,3-d]pyrimidine (racemic, trans)] had an IC50 of 2700 nM.

Regarding `Fc1c(-c2ccccc2C2CC2)ncc2c(N3CC4CCC(C3)N4)nc(OC[C@@]34CCCN3C[C@H](F)C4)nc12` (racemic) [Example 368, 4-((1R,5S)-3,8-diazabicyclo[3.2.1]octan-3-yl)-7-(2-cyclopropylphenyl)-8-fluoro-2-((2-fluorotetrahydro-1H-pyrrolizin-7a(5H)-yl)methoxy)pyrido[4,3-d]pyrimidine (racemic, trans)], the IC50 on KRas G12D amounted to 208 nM.

`Oc1cccc(F)c1-c1ncc2c(N3CC4CCC(C3)N4)nc(OCC34CCCN3C[C@H](F)C4)nc2c1F` (mixture of isomers) [Example 369, 2-(4-((1R,5S)-3,8-diazabicyclo[3.2.1]octan-3-yl)-8-fluoro-2-((2-fluorotetrahydro-1H-pyrrolizin-7a(5H)-yl)methoxy)pyrido[4,3-d]pyrimidin-7-yl)-3-fluorophenol (racemic, trans)] registered an IC50 at KRas G12D of 221 nM.

`CO[C@H]1C[C@@H](COc2nc(N3C[C@H]4CC[C@@H](C3)N4)c3cnc(-c4cccc5cccc(Cl)c45)c(F)c3n2)N(C)C1` [Example 149, 4-((1R,5S)-3,8-diazabicyclo[3.2.1]octan-3-yl)-7-(8-chloronaphthalen-1-yl)-8-fluoro-2-(((2S,4S)-4-methoxy-1-methylpyrrolidin-2-yl)methoxy)pyrido[4,3-d]pyrimidine] registered a concentration for half-maximal inhibition (IC50) on KRas G12D of 870 nM. This IC50 is about 3.9-fold higher than that of the molecule before.

With `CC(C)(C)c1ccccc1-c1ncc2c(N3CC4CCC(C3)N4)nc(OC[C@@]34CCCN3C[C@H](F)C4)nc2c1F` (racemic) [Example 362, 4-((1R,5S)-3,8-diazabicyclo[3.2.1]octan-3-yl)-7-(2-(tert-butyl)phenyl)-8-fluoro-2-((2-fluorotetrahydro-1H-pyrrolizin-7a(5H)-yl)methoxy)pyrido[4,3-d]pyrimidine (racemic, trans)], the IC50 at KRas G12D came out at 106 nM; in assay [1] it was 10500 nM.

Regarding `CSc1cccc2cc(O)cc(-c3ncc4c(N5CC6CCC(C5)N6)nc(OCC56CCCN5C[C@H](F)C6)nc4c3F)c12` (mixture of isomers) [Example 372, 4-(4-((1R,5S)-3,8-diazabicyclo[3.2.1]octan-3-yl)-8-fluoro-2-((2-fluorotetrahydro-1H-pyrrolizin-7a(5H)-yl)methoxy)pyrido[4,3-d]pyrimidin-7-yl)-5-(methylthio)naphthalen-2-ol (racemic, trans)], the IC50 was found to be 0.7 nM at KRas G12D and 10.5 nM in assay [1].

For `Oc1cc(-c2ncc3c(N4CC5CCC(C4)N5)nc(OC[C@@]45CCCN4C[C@H](F)C5)nc3c2F)c2c(F)cccc2c1` (racemic) [Example 366, 4-(4-((1R,5S)-3,8-diazabicyclo[3.2.1]octan-3-yl)-8-fluoro-2-((2-fluorotetrahydro-1H-pyrrolizin-7a(5H)-yl)methoxy)pyrido[4,3-d]pyrimidin-7-yl)-5-fluoronaphthalen-2-ol (racemic, trans)], the IC50 on KRas G12D is 0.5 nM; in assay [1], 7 nM.

In the case of `CC(C)c1cccc2cc(O)cc(-c3ncc4c(N5CC6CCC(C5)N6)nc(OC[C@@]56CCCN5C[C@H](F)C6)nc4c3F)c12` (racemic) [Example 364, 4-(4-((1R,5S)-3,8-diazabicyclo[3.2.1]octan-3-yl)-8-fluoro-2-((2-fluorotetrahydro-1H-pyrrolizin-7a(5H)-yl)methoxy)pyrido[4,3-d]pyrimidin-7-yl)-5-isopropylnaphthalen-2-ol (racemic, trans)], the IC50 on KRas G12D stood at 2.3 nM; in assay [1] it was 322 nM.

For `Fc1c(-c2ccccc2C2CCC2)ncc2c(N3CC4CCC(C3)N4)nc(OCC34CCCN3C[C@H](F)C4)nc12` (mixture of isomers) [Example 371, 4-((1R,5S)-3,8-diazabicyclo[3.2.1]octan-3-yl)-7-(2-cyclobutylphenyl)-8-fluoro-2-((2-fluorotetrahydro-1H-pyrrolizin-7a(5H)-yl)methoxy)pyrido[4,3-d]pyrimidine (racemic, trans)], the IC50 on KRas G12D turned out to be 394 nM.

As to `Cc1cc2[nH]ncc2c(-c2ncc3c(N4CC5CCC(C4)N5)nc(OC[C@@]45CCCN4C[C@H](F)C5)nc3c2F)c1Cl` (racemic) [Example 376, 4-((1R,5S)-3,8-diazabicyclo[3.2.1]octan-3-yl)-7-(5-chloro-6-methyl-1H-indazol-4-yl)-8-fluoro-2-((2-fluorotetrahydro-1H-pyrrolizin-7a(5H)-yl)methoxy)pyrido[4,3-d]pyrimidine (racemic, trans)], at KRas G12D, the IC50 turned out to be 2.6 nM.

On KRas G12D, `Fc1c(-c2ccccc2CC(F)(F)F)ncc2c(N3CC4CCC(C3)N4)nc(OC[C@@]34CCCN3C[C@H](F)C4)nc12` (racemic) [Example 383, 4-((1R,5S)-3,8-diazabicyclo[3.2.1]octan-3-yl)-8-fluoro-2-((2-fluorotetrahydro-1H-pyrrolizin-7a(5H)-yl)methoxy)-7-(2-(2,2,2-trifluoroethyl)phenyl)pyrido[4,3-d]pyrimidine (racemic, trans)] returned an IC50 of 586 nM.

In the case of `Fc1c(-c2cccc3cccc(Cl)c23)ncc2c(N3CC4CCC(C3)N4)nc(OC[C@@]34CCCN3C[C@@H](C(F)(F)F)C4)nc12` (mixture of isomers) [Example 382, 4-((1R,5S)-3,8-diazabicyclo[3.2.1]octan-3-yl)-7-(8-chloronaphthalen-1-yl)-8-fluoro-2-(((2S,7aS)-2-(trifluoromethyl)tetrahydro-1H-pyrrolizin-7a(5H)-yl)methoxy)pyrido[4,3-d]pyrimidine) (mixture of cis diastereomers)], the IC50 in assay [1] was > 16700 nM.

Regarding `CCN1CCC[C@H]1COc1nc(N2C[C@H]3CC[C@@H](C2)N3)c2cnc(-c3cc(O)cc4ccccc34)c(F)c2n1` [Example 11, 4-(4-((1R,5S)-3,8-diazabicyclo[3.2.1]octan-3-yl)-2-(((S)-1-ethylpyrrolidin-2-yl)methoxy)-8-fluoropyrido[4,3-d]pyrimidin-7-yl)naphthalen-2-ol], the IC50 in assay [1] was 1080 nM. This lies in the single-digit micromolar range.

For the molecule `Fc1c(-c2cccc3cccc(OC(F)(F)F)c23)ncc2c(N3C[C@H]4CC[C@@H](C3)N4)nc(OCC34CCCN3CCC4)nc12` [Example 345, 4-((1R,5S)-3,8-diazabicyclo[3.2.1]octan-3-yl)-8-fluoro-2-((tetrahydro-1H-pyrrolizin-7a(5H)-yl)methoxy)-7-(8-(trifluoromethoxy)naphthalen-1-yl)pyrido[4,3-d]pyrimidine], it took 1470 nM to reach half-maximal inhibition in assay [1] (IC50).

In assay [1], `Fc1c(-c2c(C(F)(F)F)ccc3[nH]ncc23)ncc2c(N3CC4CCC(C3)N4)nc(OCC34CCCN3C[C@H](F)C4)nc12` (mixture of isomers) [Example 343, 4-((1R,5S)-3,8-diazabicyclo[3.2.1]octan-3-yl)-8-fluoro-2-((2-fluorotetrahydro-1H-pyrrolizin-7a(5H)-yl)methoxy)-7-(5-(trifluoromethyl)-1H-indazol-4-yl)pyrido[4,3-d]pyrimidine] registered an IC50 of 1620 nM.

With `CN1CCC[C@H]1COc1nc(N2CC3CCC(CCC#N)(C2)N3)c2cnc(-c3cc(O)cc4ccccc34)c(F)c2n1` (stereo partly drawn) [Example 157, 3-(3-(8-fluoro-7-(3-hydroxynaphthalen-1-yl)-2-(((S)-1-methylpyrrolidin-2-yl)methoxy)pyrido[4,3-d]pyrimidin-4-yl)-3,8-diazabicyclo[3.2.1]octan-1-yl)propanenitrile bis(2,2,2-trifluoroacetate)], the IC50 in assay [1] came out at 8000 nM. Against the preceding molecule, the IC50 is about 4.9-fold higher.

As to `CN1CCC[C@H]1COc1nc(N2CC3CCC(C(N)=O)(C2)N3)c2cnc(-c3cc(O)cc4ccccc34)c(F)c2n1` (stereo partly drawn) [Example 159, 3-(8-fluoro-7-(3-hydroxynaphthalen-1-yl)-2-(((S)-1-methylpyrrolidin-2-yl)methoxy)pyrido[4,3-d]pyrimidin-4-yl)-3,8-diazabicyclo[3.2.1]octane-1-carboxamide bis(2,2,2-trifluoroacetate)], the IC50 in assay [1] was > 16700 nM.

`C#Cc1cccc2cc(OC)cc(-c3ncc4c(N5C[C@H]6CC[C@@H](C5)N6)nc(OCC56CCCN5CCC6)nc4c3F)c12` [Example 231, 4-((1R,5S)-3,8-diazabicyclo[3.2.1]octan-3-yl)-7-(8-ethynyl-3-methoxynaphthalen-1-yl)-8-fluoro-2-((hexahydro-1H-pyrrolizin-7a-yl)methoxy)pyrido[4,3-d]pyrimidine] had an IC50 in assay [1] of 2810 nM.

In turn, `CC#Cc1cccc2cccc(-c3ncc4c(N5C[C@H]6CC[C@@H](C5)N6)nc(OCC56CCCN5CCC6)nc4c3F)c12` [Example 195, 4-((1R,5S)-3,8-diazabicyclo[3.2.1]octan-3-yl)-8-fluoro-7-(8-(prop-1-yn-1-yl)naphthalen-1-yl)-2-((tetrahydro-1H-pyrrolizin-7a(5H)-yl)methoxy)pyrido[4,3-d]pyrimidine] gave an IC50 in assay [1] of 2460 nM.

In turn, `C#Cc1cccc2cncc(-c3ncc4c(N5C[C@H]6CC[C@@H](C5)N6)nc(OC[C@]56CCCN5C[C@@H](F)C6)nc4c3F)c12` [Example 204, 4-((1R,5S)-3,8-diazabicyclo[3.2.1]octan-3-yl)-7-(5-ethynylisoquinolin-4-yl)-8-fluoro-2-(((2S,7aR)-2-fluorotetrahydro-1H-pyrrolizin-7a(5H)-yl)methoxy)pyrido[4,3-d]pyrimidine] came in with an IC50 in assay [1] of 307 nM.
